Results: US20070049564A1 (Wyeth, priority 2005, published 2007)
Values after ≈ are worked out from the molar mass of the structure shown. Read-outs that look alike come from different tables or passages of the source.

What was measured:
E. coli GC 2232 = experiment: MIC, broth microdilution
E. coli GC 2270 = experiment: MIC, broth microdilution; conditions: Escherichia coli
E. coli GC 2271 = experiment: MIC, broth microdilution; conditions: Escherichia coli, GC2271, E. coli GC 2271
E. coli GC 4559 = experiment: MIC, broth microdilution; conditions: Escherichia coli, GC4559, E. coli GC 4559
E. coli GC 3226 = experiment: MIC, broth microdilution
E. coli GC 1073 = experiment: MIC, broth microdilution
Description: (§1) Antimicrobial susceptibility testing. The in vitro activities of the antibiotics are determined by the broth microdilution method as recommended by the National Committee for Clinical Laboratory Standards (NCCLS) (1). Mueller-Hinton II broth (MHBII)(BBL Cockeysville, Md.) is the medium employed in the testing procedures. Microtiter plates containing serial dilutions of each antimicrobial agent are inoculated with each organism to yield the appropriate density (10^5 CFU/ml) in a 100 μl final volume. The plates are incubated for 18-22 hours at 35° C. in ambient air.
Representative compounds were first incubated in mouse serum for an hour prior to the in vitro testing against a panel of selected gram-positive and gram-negative bacteria strains. All compounds were also pre-incubated in water for an hour prior to testing as control. Representative compounds of Formula I were incubated in human serum prior to MIC determination.

P. aeruginosa GC 2214 = experiment: MIC, broth microdilution
Description: as §1
Representative compounds were first incubated in mouse serum for an hour prior to the in vitro testing against a panel of selected gram-positive and gram-negative bacteria strains. All compounds were also pre-incubated in water for an hour prior to testing as control.

S. aureus GC 4536 = experiment: MIC, broth microdilution
S. aureus GC 2216 = experiment: MIC, broth microdilution
S. aureus GC 6335 = experiment: MIC, broth microdilution
S. aureus GC 6469 = experiment: MIC, broth microdilution
E. faecalis GC 2265 = experiment: MIC, broth microdilution
E. faecalis GC 2242 = experiment: MIC, broth microdilution
E. faecium GC 2243 = experiment: MIC, broth microdilution
S. pneumoniae+ GC 4465 = experiment: MIC, broth microdilution
S. pyogenes GC 4563 = experiment: MIC, broth microdilution
S. agalactiae GC 4564 = experiment: MIC, broth microdilution
c. albicans GC 3066 = experiment: MIC, broth microdilution
E. coli = experiment: Range of MIC for E. coli strains; conditions: Escherichia coli
Staph. aureus Smith = experiment: In vivo activity (oral, iv; ED50) against Staph. aureus Smith in mice
Description: Representative examples of compounds of Formula I were tested for the oral efficacy using S. aureus Smith in mice.

## CCCN(CC(=O)Nc1cc(N(C)C)c2c(c1O)C(=O)C1=C(O)[C@]3(O)C(=O)C(C(N)=O)=C(O)[C@@H](N(C)C)[C@@H]3C[C@@H]1C2)C(=O)OCC [Example 15, ethyl 2-{[(5aR,6aS,7S,10aS)-9-(aminocarbonyl)-4,7-bis(dimethylamino)-1,8,10a,11-tetrahydroxy-10,12-dioxo-5,5a,6,6a,7,10,10a,12-octahydrotetracen-2-yl]amino}-2-oxoethyl(propyl)carbamate]
E. coli GC 2232; Escherichia coli, GC2232, E. coli GC 2232, Mouse Serum pre-incubation
  MIC: > 64 µg/mL
E. coli GC 2232; Escherichia coli, GC2232, E. coli GC 2232, Water pre-incubation
  MIC: > 64 µg/mL
E. coli GC 2270; GC2270, E. coli GC 2270, Mouse Serum pre-incubation
  MIC: 64 µg/mL (≈ 99.4 µM)
E. coli GC 2270; GC2270, E. coli GC 2270, Water pre-incubation
  MIC: 64 µg/mL (≈ 99.4 µM)
E. coli GC 2271; Mouse Serum pre-incubation
  MIC: 64 µg/mL (≈ 99.4 µM)
E. coli GC 2271; Water pre-incubation
  MIC: 64 µg/mL (≈ 99.4 µM)
E. coli GC 4559; Mouse Serum pre-incubation
  MIC: > 64 µg/mL
E. coli GC 4559; Water pre-incubation
  MIC: > 64 µg/mL
E. coli GC 3226; Escherichia coli, GC3226, E. coli GC 3226, Mouse Serum pre-incubation
  MIC: > 64 µg/mL
E. coli GC 3226; Escherichia coli, GC3226, E. coli GC 3226, Water pre-incubation
  MIC: > 64 µg/mL
E. coli GC 1073; Escherichia coli, GC1073, E. coli GC 1073, Mouse Serum pre-incubation
  MIC: > 64 µg/mL
E. coli GC 1073; Escherichia coli, GC1073, E. coli GC 1073, Water pre-incubation
  MIC: > 64 µg/mL
P. aeruginosa GC 2214; Pseudomonas aeruginosa, GC2214, P. aeruginosa GC 2214, Mouse Serum pre-incubation
  MIC: > 64 µg/mL
P. aeruginosa GC 2214; Pseudomonas aeruginosa, GC2214, P. aeruginosa GC 2214, Water pre-incubation
  MIC: > 64 µg/mL
S. aureus GC 4536; Staphylococcus aureus, GC4536, S. aureus GC 4536, Mouse Serum pre-incubation
  MIC: 2 µg/mL (≈ 3.11 µM)
S. aureus GC 4536; Staphylococcus aureus, GC4536, S. aureus GC 4536, Water pre-incubation
  MIC: 4 µg/mL (≈ 6.21 µM)
S. aureus GC 2216; Staphylococcus aureus, GC2216, S. aureus GC 2216, Mouse Serum pre-incubation
  MIC: 2 µg/mL (≈ 3.11 µM)
S. aureus GC 2216; Staphylococcus aureus, GC2216, S. aureus GC 2216, Water pre-incubation
  MIC: 4 µg/mL (≈ 6.21 µM)
S. aureus GC 6335; Staphylococcus aureus, GC6335, S. aureus GC 6335, Mouse Serum pre-incubation
  MIC: 4 µg/mL (≈ 6.21 µM)
S. aureus GC 6335; Staphylococcus aureus, GC6335, S. aureus GC 6335, Water pre-incubation
  MIC: 4 µg/mL (≈ 6.21 µM)
S. aureus GC 6469; Staphylococcus aureus, GC6469, S. aureus GC 6469, Mouse Serum pre-incubation
  MIC: 4 µg/mL (≈ 6.21 µM)
S. aureus GC 6469; Staphylococcus aureus, GC6469, S. aureus GC 6469, Water pre-incubation
  MIC: 8 µg/mL (≈ 12.4 µM)
E. faecalis GC 2265; Enterococcus faecalis, GC2265, E. faecalis GC 2265, Mouse Serum pre-incubation
  MIC: 8 µg/mL (≈ 12.4 µM)
E. faecalis GC 2265; Enterococcus faecalis, GC2265, E. faecalis GC 2265, Water pre-incubation
  MIC: 8 µg/mL (≈ 12.4 µM)
E. faecalis GC 2242; Enterococcus faecalis, GC2242, E. faecalis GC 2242, Mouse Serum pre-incubation
  MIC: 8 µg/mL (≈ 12.4 µM)
E. faecalis GC 2242; Enterococcus faecalis, GC2242, E. faecalis GC 2242, Water pre-incubation
  MIC: 8 µg/mL (≈ 12.4 µM)
E. faecium GC 2243; Enterococcus faecium, GC2243, E. faecium GC 2243, Mouse Serum pre-incubation
  MIC: 8 µg/mL (≈ 12.4 µM)
E. faecium GC 2243; Enterococcus faecium, GC2243, E. faecium GC 2243, Water pre-incubation
  MIC: 8 µg/mL (≈ 12.4 µM)
S. pneumoniae+ GC 4465; Streptococcus pneumoniae, S. pneumoniae+ GC 4465, Mouse Serum pre-incubation
  MIC: 4 µg/mL (≈ 6.21 µM)
S. pneumoniae+ GC 4465; Streptococcus pneumoniae, S. pneumoniae+ GC 4465, Water pre-incubation
  MIC: 4 µg/mL (≈ 6.21 µM)
S. pyogenes GC 4563; Streptococcus pyogenes, GC4563, S. pyogenes GC 4563, Mouse Serum pre-incubation
  MIC: 2 µg/mL (≈ 3.11 µM)
S. pyogenes GC 4563; Streptococcus pyogenes, GC4563, S. pyogenes GC 4563, Water pre-incubation
  MIC: 2 µg/mL (≈ 3.11 µM)
S. agalactiae GC 4564; Streptococcus agalactiae, GC4564, S. agalactiae GC 4564, Mouse Serum pre-incubation
  MIC: 8 µg/mL (≈ 12.4 µM)
S. agalactiae GC 4564; Streptococcus agalactiae, GC4564, S. agalactiae GC 4564, Water pre-incubation
  MIC: 8 µg/mL (≈ 12.4 µM)
c. albicans GC 3066; Candida albicans, GC3066
  MIC: > 64 µg/mL
c. albicans GC 3066; c. albicans GC 3066, Water pre-incubation
  MIC: >64 UG/ML

## CCCCN(CC(=O)Nc1cc(N(C)C)c2c(c1O)C(=O)C1=C(O)[C@]3(O)C(=O)C(C(N)=O)=C(O)[C@@H](N(C)C)C3CC1C2)C(=O)OCc1oc(=O)oc1C (stereo partly drawn) [Example 109, (5-methyl-2-oxo-1,3-dioxol-4-yl)methyl 2-{[(7S,10aS)-9-(aminocarbonyl)-4,7-bis(dimethylamino)-1,8,10a,11-tetrahydroxy-10,12-dioxo-5,5a,6,6a,7,10,10a,12-octahydrotetracen-2-yl]amino}-2-oxoethyl(butyl)carbamate]
E. coli GC 2232; Escherichia coli, GC2232, pre-incubation in mouse serum
  MIC: 0.5 µg/mL (≈ 0.674 µM)
E. coli GC 2232; Escherichia coli, GC2232, pre-incubation in water
  MIC: 1 µg/mL (≈ 1.35 µM)
E. coli GC 2232; pre-incubation in water
  MIC: 2 UG/ML
E. coli GC 2270; GC2270, pre-incubation in mouse serum
  MIC: 0.25 µg/mL (≈ 0.337 µM)
E. coli GC 3226; Escherichia coli, GC3226, pre-incubation in mouse serum
  MIC: 0.5 µg/mL (≈ 0.674 µM)
E. coli GC 3226; pre-incubation in mouse serum
  MIC: 1 UG/ML
E. coli GC 1073; Escherichia coli, GC1073, pre-incubation in mouse serum
  MIC: 0.5 µg/mL (≈ 0.674 µM)
E. coli GC 1073; pre-incubation in mouse serum
  MIC: 1 UG/ML
P. aeruginosa GC 2214; Pseudomonas aeruginosa, GC2214, pre-incubation in mouse serum
  MIC: 16 µg/mL (≈ 21.6 µM)
P. aeruginosa GC 2214; Pseudomonas aeruginosa, GC2214, pre-incubation in water
  MIC: > 64 µg/mL
P. aeruginosa GC 2214; pre-incubation in mouse serum
  MIC: 32 UG/ML
S. aureus GC 4536; Staphylococcus aureus, GC4536, pre-incubation in mouse serum
  MIC: 1 µg/mL (≈ 1.35 µM)
S. aureus GC 4536; Staphylococcus aureus, GC4536, pre-incubation in water
  MIC: 2 µg/mL (≈ 2.7 µM)
S. aureus GC 4536; pre-incubation in water
  MIC: 4 UG/ML
S. aureus GC 2216; Staphylococcus aureus, GC2216, pre-incubation in mouse serum
  MIC: 1 µg/mL (≈ 1.35 µM)
S. aureus GC 2216; pre-incubation in mouse serum
  MIC: 0.50 UG/ML
S. aureus GC 6335; Staphylococcus aureus, GC6335, pre-incubation in mouse serum
  MIC: 2 µg/mL (≈ 2.7 µM)
S. aureus GC 6335; Staphylococcus aureus, GC6335, pre-incubation in water
  MIC: 4 µg/mL (≈ 5.39 µM)
S. aureus GC 6335; pre-incubation in mouse serum
  MIC: 1 UG/ML
S. aureus GC 6469; Staphylococcus aureus, GC6469, pre-incubation in mouse serum
  MIC: 1 µg/mL (≈ 1.35 µM)
S. aureus GC 6469; pre-incubation in mouse serum
  MIC: 2 UG/ML
E. faecalis GC 2265; Enterococcus faecalis, GC2265, pre-incubation in mouse serum
  MIC: 1 µg/mL (≈ 1.35 µM)
E. faecalis GC 2265; Enterococcus faecalis, GC2265, pre-incubation in water
  MIC: 2 µg/mL (≈ 2.7 µM)
E. faecalis GC 2265; pre-incubation in water
  MIC: 4 UG/ML
E. faecalis GC 2242; Enterococcus faecalis, GC2242, pre-incubation in mouse serum
  MIC: 1 µg/mL (≈ 1.35 µM)
E. faecalis GC 2242; Enterococcus faecalis, GC2242, pre-incubation in water
  MIC: 1 µg/mL (≈ 1.35 µM)
E. faecalis GC 2242; pre-incubation in water
  MIC: 2 UG/ML
E. faecium GC 2243; Enterococcus faecium, GC2243, pre-incubation in mouse serum
  MIC: 0.5 µg/mL (≈ 0.674 µM)
E. faecium GC 2243; Enterococcus faecium, GC2243, pre-incubation in water
  MIC: 0.5 µg/mL (≈ 0.674 µM)
E. faecium GC 2243; pre-incubation in water
  MIC: 1 UG/ML
S. pneumoniae+ GC 4465; Streptococcus pneumoniae, pre-incubation in mouse serum
  MIC: 1 µg/mL (≈ 1.35 µM)
S. pneumoniae+ GC 4465; Streptococcus pneumoniae, pre-incubation in water
  MIC: 1 µg/mL (≈ 1.35 µM)
S. pneumoniae+ GC 4465; pre-incubation in water
  MIC: 2 UG/ML
S. pyogenes GC 4563; Streptococcus pyogenes, GC4563, pre-incubation in mouse serum
  MIC: < 0.06 µg/mL
S. pyogenes GC 4563; pre-incubation in mouse serum
  MIC: 0.12 UG/ML
S. agalactiae GC 4564; Streptococcus agalactiae, GC4564, pre-incubation in mouse serum
  MIC: 0.12 µg/mL (≈ 0.162 µM)
S. agalactiae GC 4564; Streptococcus agalactiae, GC4564, pre-incubation in water
  MIC: 0.25 µg/mL (≈ 0.337 µM)
S. agalactiae GC 4564; pre-incubation in mouse serum
  MIC: <0.06 UG/ML
c. albicans GC 3066; Candida albicans, GC3066
  MIC: > 64 µg/mL
c. albicans GC 3066; pre-incubation in water
  MIC: >64 UG/ML
E. coli; 20 h, read-out: Range of MIC, E. coli (Mouse Serum)
  MIC: 0.25 to 1 µg/mL (≈ 0.337 to 1.35 µM)
E. coli; read-out: Range of MIC, E. coli (Water)
  MIC: 1 to 4 µg/mL (≈ 1.35 to 5.39 µM)
Staph. aureus Smith; Staphylococcus aureus, in Mus musculus, po, read-out: ED50 Staph Smith SOD
  ED50: 19.9 mg/kg
Staph. aureus Smith; iv, read-out: ED50 Staph Smith SIV
  ED50: 0.76 mg/kg
